In DBAASP:
Values after ≈ are worked out from the molar mass of the structure shown.

Tests used:
Assay in all cases: ≥ marks a high value that may be exact or a test limit, other limits are often not marked, values filed in µg/mL are converted to µM
[1] = test system: Bacillus subtilis 168
[2] = test system: Escherichia coli B
[3] = test system: Staphylococcus aureus
[4] = test system: Pseudomonas aeruginosa
[5] = test system: Pseudomonas aeruginosa ATCC 10145
[6] = test system: Pseudomonas aeruginosa CMCCB 10104
[7] = test system: Staphylococcus aureus ATCC 25923
[8] = test system: Candida albicans ATCC 2002
[9] = test system: Escherichia coli ATCC 25922

SMILES	MIC [1] [µM]	MIC [2] [µM]	MIC [3] [µM]	MIC [4] [µM]	MIC [5] [µM]	MIC [6] [µM]	MIC [7] [µM]	MIC [8] [µM]	MIC [9] [µM]
CC[C@H](C)[C@H](NC(=O)[C@H](CC(C)C)NC(=O)[C@H](Cc1cnc[nH]1)NC(=O)CNC(=O)[C@H](CC(C)C)NC(=O)[C@@H](NC(=O)[C@H](CCCCN)NC(=O)[C@H](CO)NC(=O)[C@H](Cc1c[nH]c2ccccc12)NC(=O)[C@H](CCSC)NC(=O)CN)[C@@H](C)CC)C(=O)N[C@@H](CCCCN)C(N)=O [GMWSKILGHLIK]	1.3 (≈ 1.8 µg/mL)	7.2 (≈ 9.95 µg/mL)	15.8 (≈ 21.8 µg/mL)	65 (≈ 89.8 µg/mL)					
C[C@H](NC(=O)[C@H](C)NC(=O)[C@H](CCCCN)NC(=O)[C@H](CCCCN)NC(=O)[C@H](C)NC(=O)[C@H](C)NC(=O)[C@H](CCCCN)NC(=O)[C@H](CCCCN)NC(=O)[C@H](C)NC(=O)[C@H](Cc1ccccc1)NC(=O)[C@H](CCCCN)NC(=O)[C@H](CCCCN)NC(=O)[C@H](C)NC(=O)[C@H](Cc1ccccc1)NC(=O)[C@@H](N)CCCCN)C(=O)N[C@@H](CCCCN)C(=O)O [KFAKKFAKKAAKKAAK]					≥ 142				
CC[C@H](C)[C@H](NC(=O)[C@H](CCCCN)NC(=O)CNC(=O)[C@H](CC(C)C)NC(=O)[C@@H](NC(=O)[C@H](CCCCN)NC(=O)[C@H](CCCCN)NC(=O)[C@H](Cc1c[nH]c2ccccc12)NC(=O)[C@@H](NC(=O)[C@@H](N)CC(N)=O)C(C)C)C(C)C)C(=O)N[C@H](C(=O)N[C@@H](CCCCN)C(=O)N[C@H](C(=O)N[C@@H](C)C(=O)N[C@@H](CCCCN)C(N)=O)C(C)C)[C@@H](C)CC [NVWKKVLGKIIKVAK]	1.3 (≈ 2.24 µg/mL)	2.5 (≈ 4.31 µg/mL)	71.6 (≈ 123 µg/mL)	22.7 (≈ 39.1 µg/mL)					
CC[C@H](C)[C@H](NC(=O)CNC(=O)[C@H](CCCCN)NC(=O)CNC(=O)[C@H](CO)NC(=O)[C@H](Cc1ccccc1)NC(=O)[C@H](CCCCN)NC(=O)[C@H](CO)NC(=O)[C@H](Cc1ccccc1)NC(=O)[C@H](CC(C)C)NC(=O)CN)C(=O)N[C@@H](CCCCN)C(=O)N[C@@H](CC(N)=O)C(=O)N[C@@H](Cc1ccccc1)C(=O)N[C@@H](CC(C)C)C(=O)N[C@H](C(=O)N[C@@H](CCCCN)C(=O)NCC(=O)N[C@H](C(=O)N[C@@H](CCCCN)C(=O)N[C@@H](Cc1cnc[nH]1)C(=O)N[C@H](C(=O)NCC(=O)N[C@@H](CCCCN)C(=O)N[C@@H](CCC(=O)O)C(=O)N[C@H](C(=O)NCC(=O)N[C@@H](CCSC)C(=O)N[C@@H](CC(=O)O)C(=O)N[C@H](C(=O)N[C@H](C(=O)N[C@@H](CCCN=C(N)N)C(=O)N[C@H](C(=O)NCC(=O)N[C@H](C(=O)N[C@@H](CC(=O)O)C(=O)N[C@H](C(=O)N[C@@H](C)C(=O)NCC(=O)N[C@H]1CSSC[C@@H](C(=O)O)NC(=O)[C@H](CCC(=O)O)NC(=O)CNC(=O)[C@H](CCCCN)NC(=O)[C@H]([C@@H](C)CC)NC(=O)[C@H](CCCCN)NC1=O)C(C)C)[C@@H](C)CC)[C@@H](C)O)[C@@H](C)CC)C(C)C)C(C)C)[C@@H](C)CC)C(C)C)[C@@H](C)CC [GLFSKFSGKGIKNFLIKGVKHIGKEVGMDVIRTGIDVAGCKIKGEC]						0.512 (≈ 2.5 µg/mL)	0.266 (≈ 1.3 µg/mL)	0.266 (≈ 1.3 µg/mL)	0.512 (≈ 2.5 µg/mL)
CC[C@H](C)[C@H](NC(=O)CN)C(=O)N[C@@H](Cc1ccccc1)C(=O)N[C@@H](CO)C(=O)N[C@@H](CCCCN)C(=O)N[C@H](C(=O)N[C@@H](CO)C(=O)NCC(=O)N[C@@H](CCCCN)C(=O)N[C@@H](C)C(=O)N[C@H](C(=O)N[C@@H](CCCCN)C(=O)N[C@@H](CC(N)=O)C(=O)N[C@@H](CC(C)C)C(=O)N[C@@H](Cc1ccccc1)C(=O)N[C@H](C(=O)N[C@@H](CCCCN)C(=O)NCC(=O)N[C@@H](C)C(=O)N[C@@H](CCCCN)C(=O)N[C@@H](CC(N)=O)C(=O)N[C@H](C(=O)NCC(=O)N[C@@H](CCCCN)C(=O)N[C@@H](CCC(=O)O)C(=O)N[C@H](C(=O)NCC(=O)N[C@@H](CCSC)C(=O)N[C@@H](CC(=O)O)C(=O)N[C@H](C(=O)N[C@H](C(=O)N[C@@H](CCCN=C(N)N)C(=O)N[C@H](C(=O)NCC(=O)N[C@@H](CCSC)C(=O)N[C@@H](CC(=O)O)C(=O)N[C@H](C(=O)N[C@H](C(=O)NCC(=O)N[C@H]1CSSC[C@@H](C(=O)O)NC(=O)[C@H](CCC(=O)O)NC(=O)CNC(=O)[C@H](CCCCN)NC(=O)[C@H]([C@@H](C)CC)NC(=O)[C@H](CCCCN)NC1=O)C(C)C)C(C)C)[C@@H](C)O)C(C)C)C(C)C)C(C)C)C(C)C)[C@@H](C)CC)[C@@H](C)CC)[C@@H](C)CC [GIFSKISGKAIKNLFIKGAKNVGKEVGMDVVRTGMDVVGCKIKGEC]						1.7 (≈ 8.2 µg/mL)	0.849 (≈ 4.1 µg/mL)	0.435 (≈ 2.1 µg/mL)	0.849 (≈ 4.1 µg/mL)
CC[C@H](C)[C@H](NC(=O)[C@H](CC(C)C)NC(=O)[C@H](CC(C)C)NC(=O)[C@H](CC(=O)O)NC(=O)[C@H](CCCCN)NC(=O)[C@@H](NC(=O)[C@@H](NC(=O)CNC(=O)[C@H](CC(C)C)NC(=O)[C@@H](NC(=O)[C@@H](N)CO)C(C)C)[C@@H](C)O)C(C)C)C(=O)NCC(=O)N[C@@H](C)C(=O)NCC(=O)N[C@@H](CCCCN)C(=O)N[C@@H](CO)C(=O)N[C@@H](C)C(=O)N[C@@H](C)C(=O)N[C@@H](CCC(N)=O)C(=O)N[C@@H](CO)C(=O)N[C@H](C(=O)N[C@@H](CC(C)C)C(=O)N[C@H](C(=O)N[C@@H](C)C(=O)N[C@@H](CC(C)C)C(=O)N[C@@H](CO)C(=O)N[C@H]1CSSC[C@@H](C(=O)O)NC(=O)[C@H](CO)NC(=O)[C@H](CC(N)=O)NC(=O)[C@H](CO)NC(=O)[C@H](CC(C)C)NC(=O)[C@H](CCCCN)NC1=O)[C@@H](C)O)C(C)C [SVLGTVKDLLIGAGKSAAQSVLTALSCKLSNSC]						6.8 (≈ 22 µg/mL)	3.4 (≈ 11 µg/mL)	3.4 (≈ 11 µg/mL)	1.7 (≈ 5.5 µg/mL)
